According to publication PMC5077133, “Towards Development of Small Molecule Lipid II Inhibitors as Novel Antibiotics” (PLoS ONE, 2016):

Assays:
[1] = test system: E. faecalis (n=5) clinical isolates; test: Activity against Enterococcus spp. (MIC); assay type: cell-based; details: clinical isolates sensitive to linezolid and daptomycin
Procedure: Determination of the Minimal Inhibitory Concentrations (MIC) by dilution was carried out by broth dilution according to CLSI standards.

[2] = test system: Enterococcus faecalis EF1509; test: Murine peritoneal sepsis model; assay type: in vivo, C57BL/6J mice; details: 6jc48-1 100 mg/kg, ampicillin 300 mg/kg
Description: Care of the mice met or exceeded the standards set forth by the National Institute of Health Guide for the care and use of laboratory animals and the AVMA panel on Euthanasia. All procedures in this study have been approved by the Institutional Animal Care and Use Committee (IACUC) at the University of Maryland Baltimore School of Medicine (Protocol number 02122005). Adult C57BL/6J mice (~18 grams, 8–10 weeks old) were used for all experiments. Mice were obtained from the Jackson Laboratory (Bar Harbor, Maine, USA) and housed in the IHV SPC animal core facility. Mice were fed standard chow (Harlan Laboratories) and water ad libitum. […] Infected animals (n = 5) were subsequently treated by intraperitoneal injection 30 min post-infection with 100 mg/kg of compound in 300 μL sterile saline solution, 5% Tween 80, 10% DMSO (V/V), ampicillin (300mg/kg), or vehicle (sterile saline solution, 5% Tween 80, 10% DMSO (V/V)) as positive and negative controls, respectively. Animals were closely observed during a period of 24 h and mice that show signs of severe sepsis were humanely euthanized. Mice were anesthetized by intraperitoneal injection of ketamine (80-100mg/kg) and xylazine (10–15 mg/kg). Once sedated, blood was collected by cardiac puncture. Immediately after blood collection the mice were euthanized by cervical dislocation. Spleens were harvested aseptically, weighed and homogenized in 500 μl of sterile saline solution using an IKA T10 basic disperser (IKA, Wilmington NC). Spleen homogenates were serially diluted and plated onto BHI agar plates. Bacterial counts were determined following 24 h incubation at 37°C and expressed as CFU per gram for spleen.
We established a murine model for sepsis to evaluate the efficacy of 6jc48-1 as an antibiotic agent in vivo. […] Based on the data obtained in the pharmacokinetic analysis, mice (n = 5) were inoculated intraperitoneally with E. faecalis EF1509 (~5 x 10^8 CFU/ animal) and treated after 30 min with compound 6jc48-1 (100 mg/kg IP), ampicillin (300 mg/kg IP) or vehicle. Animals were monitored for survival and after 24 h spleen samples were collected and analyzed for the presence of bacteria. Bacterial counts were determined by plating serial dilutions on BHI agar plates and compared to control treatment with ampicillin as measures of efficacy (Fig 5).

[3] = Liver microsome stability; assay type: in vitro ADME; details: human, human liver microsomes, pH 7.4
Procedure: The in vitro microsome stability assay was performed using human liver microsomes and a Biomek FXP liquid handling workstation to deliver reagents to a 96 deep well plate on a shaking peltier with temperature controls. Human liver microsomes were purchased from Corning®. The test compound was incubated in an aqueous reaction mixture (200 ul total volume) consisting of human liver microsomes (150 mixed donor pool) and NADPH Regenerating System Solutions A and B (Corning®) in the presence of 100 mM potassium phosphate buffer (pH 7.4). The NADPH solution A comprises nicotinamide adenine dinucleotide phosphate (NADP+) and glucose 6-phosphate and solution B contains glucose-6-phosphate dehydrogenase. Solutions A and B were combined prior to adding to the reaction plate to generate a supply of NADPH. The NADPH was added last to simultaneously initiate the reactions. The final concentration of the test compound was 10 uM and the microsomal protein concentration was 0.5 mg/ml. After incubation at 37°C, the reaction was terminated at 0, 5, 10, 20, 30, 40, 50 and 60 minutes, respectively, by the addition of 600 uL of acetonitrile. Three replicates were run for each time point. The quenched reaction plate was centrifuged at 4500 rpm for 10 minutes. The supernatant was diluted 1:2 in 30% Methanol in water for LC/MS/MS analyses to monitor substrate depletion. Water was substituted for NADPH for the zero time-point samples. A control plate, without NADPH cofactor, was completed on the same day, using the same conditions.
The half-life (t1/2) was obtained using the equation below: t1/2=−0.693/slope
Where slope is the slope of the line formed by ln(% remaining test compound) vs. time. The in vitro intrinsic clearance (CLint) value was calculated using equation: CLint=(0.693/t1/2)(incubation volume(ul)/total microsomal protein(mg))

CN[C@H](CC(C)C)C(=O)N[C@H]1C(=O)N[C@@H](CC(N)=O)C(=O)N[C@H]2C(=O)N[C@H]3C(=O)N[C@H](C(=O)N[C@H](C(=O)O)c4cc(O)cc(O)c4-c4cc3ccc4O)[C@H](O)c3ccc(c(Cl)c3)Oc3cc2cc(c3O[C@@H]2O[C@H](CO)[C@@H](O)[C@H](O)[C@H]2O[C@H]2C[C@](C)(N)[C@H](O)[C@H](C)O2)Oc2ccc(cc2Cl)[C@H]1O [Vancomycin]
Activity (MIC) E. faecalis (n=5) clinical isolates [1]: >32

CC1(C)S[C@@H]2[C@H](NC(=O)[C@H](N)c3ccccc3)C(=O)N2[C@H]1C(=O)O [ampicillin, reference compound]
Bacterial counts in spleen ([2]; IP treatment 30 min post-infection, spleen collected after 24 h): significant bacterial clearance | Survival of infected animals ([2]; n = 5, IP treatment 30 min post-infection, length of the experiment (24 h)): all animals

COc1ccc2c(c1)[C@]13CCCC[C@@H]1[C@H](C2)N(C)CC3 [dextromethorphan, reference compound]
microsomal CLint at 10 uM ([3]; read-out: Liver microsome intrinsic clearance (positive control)): 31 µL/min/mg | half-life at 10 uM ([3]; read-out: Liver microsome t1/2 (positive control)): 40 min
